# Measurements published in PMC6474360 (Biochemistry, 2018).
# Experiments:
# Assay type in all cases: binding
# [1] = target: sperm whale myoglobin (ferric Mb^III), H64A mutant (Physeter macrocephalus, UniProt P02185, D123N/H65A); assay: X-ray crystal structure
# [2] = target: sperm whale myoglobin (ferrous Mb^II), V68A/I107Y mutant (Physeter macrocephalus, UniProt P02185, D123N/I108Y/V69A); assay: UV-vis titration
# [3] = target: sperm whale myoglobin (ferrous Mb^II), H64Q mutant (Physeter macrocephalus, UniProt P02185, D123N/H65Q); assay: UV-vis titration
# Sequence of sperm whale myoglobin (ferrous Mb^II), H64Q mutant (P02185 whole entry H65Q/D123N): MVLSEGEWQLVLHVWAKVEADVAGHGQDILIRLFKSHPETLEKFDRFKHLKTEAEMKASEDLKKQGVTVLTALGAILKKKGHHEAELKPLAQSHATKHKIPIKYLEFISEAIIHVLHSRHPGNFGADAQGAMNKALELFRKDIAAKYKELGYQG
# [4] = target: sperm whale myoglobin (ferric Mb^III), wild-type (Physeter macrocephalus, UniProt P02185, D123N); assay: UV-vis titration
# Sequence of sperm whale myoglobin (ferric Mb^III), wild-type (P02185 whole entry D123N): as the sequence (P02185 whole entry H65Q/D123N) above, with Q65H counted along it
# Sequence of sperm whale myoglobin (ferric Mb^III), H64A mutant (P02185 whole entry H65A/D123N): as the sequence (P02185 whole entry H65Q/D123N) above, with Q65A counted along it
# Sequence of sperm whale myoglobin (ferrous Mb^II), V68A/I107Y mutant (P02185 whole entry V69A/I108Y/D123N): as the sequence (P02185 whole entry H65Q/D123N) above, with Q65H, V69A, I108Y counted along it
compound,measurement,setting,value
O=NO [nitrite],Kd,[1],> 20 mM
same,Kd,[2],19.4 ± 0.6 mM
same,Kd,[3],1.45 ± 0.3 mM
same,Kd,[4],12.2 ± 2.2 mM
